Measured values published in publication PMC2680940 (Biochemistry, 2009).

Tests used:
[1] = target: T1, 4-chlorobenzoate:CoA ligase (CBL) (Alcaligenes sp. AL3007, UniProt Q8GN86, D402A); assay: continuous spectrophotometric assay at […] nm, initial velocity; format: biochemical; conditions: 20 μM 4-CB, 10 mM CoA, 15 mM MgCl2, 50 mM K+HEPES pH 7.5, 25 °C
T1 sequence (Q8GN86 1-504 D402A): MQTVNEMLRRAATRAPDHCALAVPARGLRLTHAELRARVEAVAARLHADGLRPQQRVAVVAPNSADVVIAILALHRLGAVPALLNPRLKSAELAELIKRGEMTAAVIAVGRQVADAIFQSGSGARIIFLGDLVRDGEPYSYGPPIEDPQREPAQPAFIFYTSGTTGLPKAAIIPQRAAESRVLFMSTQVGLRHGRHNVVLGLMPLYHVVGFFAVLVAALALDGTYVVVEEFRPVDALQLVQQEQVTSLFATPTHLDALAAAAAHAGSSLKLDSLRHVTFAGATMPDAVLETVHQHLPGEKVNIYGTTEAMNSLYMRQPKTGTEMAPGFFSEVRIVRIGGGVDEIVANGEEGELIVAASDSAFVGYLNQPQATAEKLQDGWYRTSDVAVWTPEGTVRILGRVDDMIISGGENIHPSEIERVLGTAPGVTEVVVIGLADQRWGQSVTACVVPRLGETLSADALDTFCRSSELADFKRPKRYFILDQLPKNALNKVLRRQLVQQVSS

[2] = target: T2, 4-chlorobenzoate:CoA ligase (CBL) (Alcaligenes sp. AL3007, UniProt Q8GN86, D402P); assay: as above; format: biochemical; conditions: 20 μM 4-CB, 10 mM CoA, 15 mM MgCl2, 50 mM K+HEPES pH 7.5, 25 °C
T2 sequence (Q8GN86 1-504 D402P): T1 sequence (Q8GN86 1-504 D402A)

Nc1ncnc2c1ncn2[C@@H]1O[C@H](COP(=O)(O)OP(=O)(O)OP(=O)(O)O)[C@@H](O)[C@H]1O [ATP, adenosine-5′-triphosphate]
Km [1]: 28.1 ± 0.9 µM
Km [2]: 13.1 ± 0.7 µM
